From patent US10555987B2, “GHRH agonists for the treatment of ischemic disorders” (UNIVERSITY OF MIAMI, priority 2012, dated 2020)
Marks after values point to notes of the source that are not given here. Non-standard residues stand in square brackets, D forms with d. Residues, ends and D or L forms follow the SMILES beside them. *: point of attachment. Desaminotyrosyl = O=C(CCc1ccc(O)cc1)*; NMeY = CN[C@@H](Cc1ccc(O)cc1)C(=O)O; Nle = CCCC[C@H](N)C(=O)O; Orn = NCCC[C@H](N)C(=O)O; Abu = CC[C@H](N)C(=O)O

What was measured:
GH release = experiment: GH releasing potency in vivo, subcutaneous administration (Example 14, Table 12); parameters: species or system rat; details: s.c.; for Serum GH level at selected time after injection (ng/ml), 0 min / Serum GH level at selected time after injection (ng/ml), 15 min / Serum GH level at selected time after injection (ng/ml), 30 min: male rats, dose 3 μg/kg, mean ± SEM
Procedure: Male Sprague-Dawley rats, weighing 200-250 g, were purchased from Charles River Laboratory (Wilmington, Mass.) and used for experiments. All animal procedures were approved by the Veterans Affairs Animal Care and Use Committee and were conducted in accordance with additional institutional guidelines as well. Briefly, groups of 5-6 animals were used in each experiment. The rats were anesthetized with 50 mg/kg of sodium pentobarbital (Nembutal, Lundbeck Inc., Deerfield, Ill.). Twenty min after inducing anesthesia, GHRH(1-29)NH2, JI-38, or new analogs were injected into the animals intravenously (i.v.) or subcutaneously (s.c.). The peptides were dissolved in 0.01 M acetic acid to get 1 μg/μl stock solution, and then diluted with 5% mannitol. Control rats received 5% mannitol only. Blood samples were collected from the jugular vein at selected times and were used for serum preparation. Concentrations of GH in rat sera were determined by ELISA. The relative potencies of tested peptides were calculated using GHRH(1-29)NH2 and JI-38 for comparison, whose potency was defined as 1. The equivalent dosage of GHRH(1-29)NH2 to reach the same level of serum growth hormone release after injection of the specific tested peptide was determined from a GHRH(1-29)NH2 standard curve using Origin 6.0 software. […] Serum GH was determined using the rat Growth Hormone ELISA kit (ALPCO Diagnostics, Mill Valley, Calif.) according to the manufacturer's instruction. Absorbance at 405 nm was measured by a Victor 3 Multi-label Counter (Perkin-Elmer, Waltham, Md.).

GHRH receptor [1] = molecular target: T1, GHRH receptor (Homo sapiens, UniProt Q02643); experiment: GHRH receptor binding, competition with 125I-labeled JV-1-42, human pituitary membrane homogenates (Table 7); parameters: Normal human pituitaries were purchased from the National Hormone and Peptide Program; tissue National Hormone and Peptide Program (A.F. Parlow, Harbor-UCLA Medical Center, Torrance, Calif.); host or cells: normal human pituitary, membrane fraction; details: for Relative affinity (Binding potency) vs JI-38: JI-38 = 1, Table 7
T1 sequence (Q02643 23-423): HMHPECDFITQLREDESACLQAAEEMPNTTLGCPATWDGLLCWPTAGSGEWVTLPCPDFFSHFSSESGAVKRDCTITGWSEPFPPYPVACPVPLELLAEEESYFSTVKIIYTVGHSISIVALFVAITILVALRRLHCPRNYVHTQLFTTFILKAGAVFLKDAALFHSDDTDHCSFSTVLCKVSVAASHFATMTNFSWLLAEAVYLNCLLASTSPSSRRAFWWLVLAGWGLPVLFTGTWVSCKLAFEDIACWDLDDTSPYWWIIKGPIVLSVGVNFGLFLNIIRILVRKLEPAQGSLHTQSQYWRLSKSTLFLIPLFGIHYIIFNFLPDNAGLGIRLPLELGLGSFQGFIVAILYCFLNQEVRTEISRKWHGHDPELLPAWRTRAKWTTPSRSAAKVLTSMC
Source text: Normal human pituitaries were purchased from the National Hormone and Peptide Program (A.F. Parlow, Los Angeles, County Harbor-UCLA Medical Center, Torrance, Calif.).

GHRH receptor [2] = molecular target: T1, GHRH receptor; experiment: Receptor binding in vitro, 125I-labeled [His1,Nle27]-hGHRH(1-32)NH2, membrane receptors of human anterior pituitary cells (Table 14); details: for Relative affinity (Binding potency) compared to JI-38: JI-38 = 1; for Relative affinity (Binding potency) compared to hGHRH(1-29): hGHRH(1-29)NH2 = 1
Source text: Normal human pituitary was purchased from the National Hormone and Peptide Program (UCLA Medical Center, Torrance, Calif.).

Row | SMILES | Serum GH level at selected time after injection (ng/ml), 0 min (GH release) | Serum GH level at selected time after injection (ng/ml), 15 min (GH release) | Serum GH level at selected time after injection (ng/ml), 30 min (GH release) | Relative potency compared to GHRH(1-29), 15 min (GH release) | Relative potency compared to JI-38, 15 min (GH release) | Relative potency compared to GHRH(1-29), 30 min (GH release) | Relative potency compared to JI-38, 30 min (GH release) | Relative affinity (Binding potency) vs JI-38 (GHRH receptor [1]) | Relative affinity (Binding potency) compared to JI-38 (GHRH receptor [2]) | Relative affinity (Binding potency) compared to hGHRH(1-29) (GHRH receptor [2]) | IC50 (GHRH receptor [1]; 125I-JV-1-42, human pituitary membranes, Table 7) | GH-releasing potency after s.c. administration (in words) (GH release)
1 | CCCC[C@H](NC(=O)[C@@H](NC(=O)[C@H](CC(=O)O)NC(=O)[C@H](CCC(N)=O)NC(=O)[C@H](CC(C)C)NC(=O)[C@H](CC(C)C)NC(=O)[C@H](CCCN)NC(=O)[C@H](CCCNC(=N)N)NC(=O)[C@H](C)NC(=O)[C@H](CO)NC(=O)[C@H](CC(C)C)NC(=O)[C@H](CCC(N)=O)NC(=O)[C@H](CC)NC(=O)[C@H](CC(C)C)NC(=O)[C@@H](NC(=O)[C@H](CCCN)NC(=O)[C@H](CCCNC(=N)N)NC(=O)[C@H](Cc1ccc(O)cc1)NC(=O)[C@H](CO)NC(=O)[C@H](CCC(N)=O)NC(=O)[C@@H](NC(=O)[C@H](Cc1ccccc1)NC(=O)[C@@H](NC(=O)[C@H](C)NC(=O)[C@H](CC(=O)O)NC(=O)[C@H](C)NC(=O)CCc1ccc(O)cc1)[C@@H](C)CC)[C@@H](C)O)C(C)C)[C@@H](C)CC)C(=O)N[C@@H](CC(=O)O)C(=O)N[C@@H](CCCNC(=N)N)C(=O)NC [Peptide P-27407, [Dat^1, Gln^8, Orn^12, Abu^15, Orn^21, Nle^27, Asp^28]hGHRH(1-29)NH—CH3] (Desaminotyrosyl-ADAIFTQSYR[Orn]VL[Abu]QLSAR[Orn]LLQDI[Nle]DR-NHMe) | 36.7 ± 10.2 ng/mL | 248.0 ± 40.5 ng/mL | 135.2 ± 10.8 ng/mL | 69.6 | 1.10 | 122 | 1.09 | 1.45 | 0.54 | 1.52 | – | –
2 | CCCC[C@H](NC(=O)[C@@H](NC(=O)[C@H](CC(=O)O)NC(=O)[C@H](CCC(N)=O)NC(=O)[C@H](CC(C)C)NC(=O)[C@H](CC(C)C)NC(=O)[C@H](CCCN)NC(=O)[C@H](CCCNC(=N)N)NC(=O)[C@H](C)NC(=O)[C@H](CO)NC(=O)[C@H](CC(C)C)NC(=O)[C@H](CCC(N)=O)NC(=O)[C@H](CC)NC(=O)[C@H](CC(C)C)NC(=O)[C@@H](NC(=O)[C@H](CCCN)NC(=O)[C@H](CCCNC(=N)N)NC(=O)[C@H](Cc1ccc(O)cc1)NC(=O)[C@H](CO)NC(=O)[C@H](CCC(N)=O)NC(=O)[C@@H](NC(=O)[C@H](Cc1ccccc1)NC(=O)[C@@H](NC(=O)[C@H](C)NC(=O)[C@H](CC(=O)O)NC(=O)[C@@H](C)NC(=O)CCc1ccc(O)cc1)[C@@H](C)CC)[C@@H](C)O)C(C)C)[C@@H](C)CC)C(=O)N[C@@H](CC(=O)O)C(=O)N[C@@H](CCCNC(=N)N)C(=O)NC [Peptide P-27408, [Dat^1, D-Ala^2, Gln^8, Orn^12, Abu^15, Orn^21, Nle^27, Asp^28]hGHRH(1-30)NH—CH3] (Desaminotyrosyl-[dA]DAIFTQSYR[Orn]VL[Abu]QLSAR[Orn]LLQDI[Nle]DR-NHMe) | 37.6 ± 15.5 ng/mL | 213.3 ± 32.0 ng/mL | 121.2 ± 8.4 ng/mL | 57.2 | 0.91 | 100.5 | 0.90 | 7.91 | 0.53 | 1.21 | 0.55 nM | –
3 | CCCC[C@H](NC(=O)[C@@H](NC(=O)[C@H](CC(=O)O)NC(=O)[C@H](CCC(N)=O)NC(=O)[C@H](CC(C)C)NC(=O)[C@H](CC(C)C)NC(=O)[C@H](CCCN)NC(=O)[C@H](CCCNC(=N)N)NC(=O)[C@H](C)NC(=O)[C@H](CO)NC(=O)[C@H](CC(C)C)NC(=O)[C@H](CCC(N)=O)NC(=O)[C@H](CC)NC(=O)[C@H](CC(C)C)NC(=O)[C@@H](NC(=O)[C@H](CCCN)NC(=O)[C@H](CCCNC(=N)N)NC(=O)[C@H](Cc1ccc(O)cc1)NC(=O)[C@H](CO)NC(=O)[C@@H](NC(=O)[C@@H](NC(=O)[C@H](Cc1ccccc1)NC(=O)[C@@H](NC(=O)[C@H](C)NC(=O)[C@H](CC(=O)O)NC(=O)[C@@H](C)NC(=O)[C@H](Cc1ccc(O)cc1)NC)[C@@H](C)CC)[C@@H](C)O)[C@@H](C)O)C(C)C)[C@@H](C)CC)C(=O)N[C@@H](CC(=O)O)C(=O)N[C@@H](CCCNC(=N)N)C(=O)NC [Peptide P-27410, [N—Me-Tyr^1, D-Ala^2, Thr^8, Orn^12, Abu^15, Orn^21, Nle^27, Asp^28]hGHRH (1-29)NH—CH3] (H-[NMeY][dA]DAIFTTSYR[Orn]VL[Abu]QLSAR[Orn]LLQDI[Nle]DR-NHMe) | 34.1 ± 1.2 ng/mL | 334.0 ± 54.0 ng/mL | 250.4 ± 28.6 ng/mL | 102.5 | 1.58 | 363.2 | 3.25* | 5.24 | 2.14 | 5.98 | – | significantly higher potencies at 30 minutes than at 15 minutes
4 | CCCC[C@H](NC(=O)[C@@H](NC(=O)[C@H](CC(=O)O)NC(=O)[C@H](CCC(N)=O)NC(=O)[C@H](CC(C)C)NC(=O)[C@H](CC(C)C)NC(=O)[C@H](CCCN)NC(=O)[C@H](CCCNC(=N)N)NC(=O)[C@H](C)NC(=O)[C@H](CO)NC(=O)[C@H](CC(C)C)NC(=O)[C@H](CCC(N)=O)NC(=O)[C@H](CC)NC(=O)[C@H](CC(C)C)NC(=O)[C@@H](NC(=O)[C@H](CCCN)NC(=O)[C@H](CCCNC(=N)N)NC(=O)[C@H](Cc1ccc(O)cc1)NC(=O)[C@H](CO)NC(=O)[C@H](CCC(N)=O)NC(=O)[C@@H](NC(=O)[C@H](Cc1ccccc1)NC(=O)[C@@H](NC(=O)[C@H](C)NC(=O)[C@H](CC(=O)O)NC(=O)[C@@H](C)NC(=O)[C@H](Cc1ccc(O)cc1)NC)[C@@H](C)CC)[C@@H](C)O)C(C)C)[C@@H](C)CC)C(=O)N[C@@H](CC(=O)O)C(=O)N[C@@H](CCCNC(=N)N)C(=O)NCC [Peptide P-28420, [N—Me-Tyr^1, D-Ala^2, Gln^8, Orn^12, Abu^15, Orn^21, Nle^27, Asp^28]hGHRH(1-29)NH—CH2—CH3] (H-[NMeY][dA]DAIFTQSYR[Orn]VL[Abu]QLSAR[Orn]LLQDI[Nle]DR-NHEt) | 35.5 ± 7.6 ng/mL | 256.2 ± 46.0 ng/mL | 126.1 ± 15.8 ng/mL | 72.6 | 1.15 | 107.8 | 0.96 | 8.37 | 1.01 | 2.83 | – | –
